Results: patent US9182397B2, “Immunoassay for detecting antibiotics” (DSM IP ASSETS B.V., priority 2011, dated 2015)

Key:
[1] = tested on: Penicillin binding protein purified from Bacillus stearothermophilus; assay: Lateral flow test strip, penicillin G in spiked milk (Example 3); set-up: key to Intensity of the detection zone: 0: no intensity; 1: low intensity; 2: medium intensity; 3: high intensity
Method: (§1) A nitrocellulose HF90 membrane (Millipore; length 25 mm) was used as a detection region. The membrane was glued to a polystyrene laminated card (thickness 0.254 mm) 8 mm from the proximal end of the card. Next, the detection zone and control zone were applied onto the nitrocellulose membrane. The detection zone was applied by dispensing 1 mg/ml of a 7ACA-spacer-BSA conjugate in 20 mM KPO4-buffer (pH 7.5) with a Biodot Dispense workstation XYZ 3050 with frontline at 0.2 μl/cm. The control zone was applied by dispensing 0.15 mg/ml of an anti-IgY antibody in 20 mM KPO4-buffer (pH 7.5) comprising 0.675 mg/ml BSA, 5% w/v saccharose and 20 mM NaCl with a Biodot Dispense workstation XYZ 3050 with frontline at 0.8 μl/cm. After drying of the zones, the nitrocellulose membrane was blocked by spraying a solution comprising 10 mM Tris buffer (pH 8) comprising 2% w/v BSA and 0.05% w/v Tween-20 using a Biodot Dispense workstation XYZ 3050 with airjet 3×. The solution was sprayed onto the membrane at a distance of 2 mm below the detection zone. Thereafter, the sample receiving region (VF2 membrane from Millipore; length 1 cm) was glued at the proximal end of the card overlapping 2 mm with the nitrocellulose membrane. The absorbing region (10038 membrane from Millipore; length 20 mm) was glued at the distal end of the card with an overlap of 2 mm on the nitrocellulose membrane. The obtained cards were dried at 37° C. in a dry atmosphere (0% relative humidity). The card was cut in strips of 5.2 mm width and kept at a dry atmosphere (0% relative humidity).
(§2) Streptavidin-coated gold particles were synthesized by reacting colloidal gold (diameter 40 nm; 1 OD/ml) with 10 μg/ml streptavidin. Next, the obtained solution was concentrated by tangential flow filtration, washed and stored in a Tris buffer (pH 8) including NaCN. Penicillin binding protein purified from Bacillus stearothermophilus was biotinylated (1:4) with D-biotinyl-epsilon-aminocaproic acid-N-hydroxysuccinimide ester. Next, the penicillin binding protein-gold conjugate was synthesized by reacting 1.5 μg biotinylated penicillin binding protein with 1 OD streptavidin-coated gold particles for 1 hour, followed by centrifugation at 10,000×g for 5 minutes and resuspension of the obtained pellet in 45 mM bicarbonate buffer comprising 0.1% w/v Triton X-100 (pH 9.6).
IgY-coated gold particles were synthesized by reacting colloidal gold (diameter 40 nm; 1 OD/ml with 10 μg/ml IgY. Next, the obtained solution was centrifuged at 7,500×g for 10 minutes and the obtained pellet was resuspended in a Tris buffer (pH 8), washed by another round of centrifugation and resuspension of the obtained pellet in a Tris buffer (pH 8) and stored in a Tris-buffer (pH 8) including NaCN.
(§3) Thereafter, 140-200 mOD of the penicillin binding protein-gold conjugate and 5-20 mOD of the IgY-gold conjugate was solubilized in 100 μl buffer (80 mM Tris buffer comprising 0.01% w/v Triton-X-100, 0.4% w/v BSA, 5% v/v glycerin and 2% w/v saccharose (pH 8.5)) and 0.75 μl of the solution was dispensed per tube and dried for 12 hours at 40° C. The obtained tubes were sealed.
(§4) 150 μl of spiked milk was added per tube containing the dried conjugates. The concentration of penicillin G in the added milk varied from 0 to 4 ng/g (tube 1: 0 ng/g; […]; tube 2: 2 ng/g; tube 3: 3 ng/g; and tube 4: 4 ng/g). The obtained liquid composition was incubated for 2 minutes at 64° C. in an incubator. A test device was put into the tube and incubated for 3 minutes at 64° C. in the incubator. The result was read by eye.

[2] = tested on: Penicillin binding protein purified from Bacillus stearothermophilus; assay: Detection of Penicillin G after storage of the test device at 4° C. (Example 25); set-up: key: 0: no intensity; 1: low intensity; 2: medium intensity; 3: high intensity
Method: as §1, §2, §3, §4
The test devices were produced as described above in Examples 1 and 2 and stored at 4° C. At different time periods after production, the test device was used to measure penicillin G. The test was done essentially as described in Example 3.

[3] = tested on: Penicillin binding protein purified from Bacillus stearothermophilus; assay: Detection of Penicillin G after different shaking steps (Example 28); set-up: key: 0: no intensity; 1: low intensity; 2: medium intensity; 3: high intensity
Method: as §1, §2, §3, §4
The test was done essentially as described in Example 3, with the proviso that different shaking steps were applied. […]

- Intensity of the detection zone compared with the intensity of the control zone ([1]; Penicillin G 1 ng/g in milk): clearly higher
- Intensity of the detection zone ([1]; Penicillin G 1 ng/g in spiked milk, read by eye): 3
- Signal intensity of the detection zone compared with the signal intensity of the control zone ([1]; Penicillin G 2 ng/g in milk): similar
- Intensity of the detection zone ([1]; Penicillin G 2 ng/g in spiked milk, read by eye): 2
- Signal intensity of the detection zone compared with the signal intensity of the control zone ([1]; Penicillin G 3 ng/g in milk): similar
- Intensity of the detection zone ([1]; Penicillin G 3 ng/g in spiked milk, read by eye): 2
- Intensity of the detection zone compared with the intensity of the control zone ([1]; Penicillin G 4 ng/g in milk): significantly lower
- Intensity of the detection zone ([1]; Penicillin G 4 ng/g in spiked milk, read by eye): 1
- Concentration in the milk at which the signal of the detection zone clearly was less intense ([1]; spiked milk, read by eye): ≥ 2 ng/g
- Intensity of detection zone ([2]; Pen G 3 ppb, test device stored 0 weeks at 4° C.): 2
- Intensity of detection zone ([2]; Pen G 3 ppb, test device stored 4 weeks at 4° C.): 2
- Intensity of detection zone ([2]; Pen G 3 ppb, test device stored 7 weeks at 4° C.): 2
- Intensity of detection zone ([2]; Pen G 3 ppb, test device stored 15 weeks at 4° C.): 2
- Intensity of detection zone ([2]; Pen G 3 ppb, test device stored 18 weeks at 4° C.): 2
- Intensity of detection zone ([2]; Pen G 3 ppb, test device stored 26 weeks at 4° C.): 2
- Intensity of detection zone ([2]; Pen G 4 ppb, test device stored 0 weeks at 4° C.): 1
- Intensity of detection zone ([2]; Pen G 4 ppb, test device stored 4 weeks at 4° C.): 1
- Intensity of detection zone ([2]; Pen G 4 ppb, test device stored 7 weeks at 4° C.): 1
- Intensity of detection zone ([2]; Pen G 4 ppb, test device stored 15 weeks at 4° C.): 1
- Intensity of detection zone ([2]; Pen G 4 ppb, test device stored 18 weeks at 4° C.): 1
- Intensity of detection zone ([2]; Pen G 4 ppb, test device stored 26 weeks at 4° C.): 1
- Intensity of detection zone ([3]; Pen G 3 ppb, Method a, no shaking steps (0 ppb gave 2, control zone 1)): 1
- Intensity of detection zone ([3]; Pen G 3 ppb, Method b, one shaking step (10 seconds) after incubation): 2
- Intensity of detection zone ([3]; Pen G 3 ppb, Method c, one shaking step (10 seconds) before incubation): 2
- Intensity of detection zone ([3]; Pen G 3 ppb, Method d, shaking 5 seconds before and 10 seconds after incubation): 2
- Intensity of detection zone ([3]; Pen G 3 ppb, Method e, shaking 10 seconds before and 10 seconds after incubation): 2
- Intensity of detection zone ([3]; Pen G 4 ppb, Method a, no shaking steps (0 ppb gave 2, control zone 1)): 1
- Intensity of detection zone ([3]; Pen G 4 ppb, Method b, one shaking step (10 seconds) after incubation): 1
- Intensity of detection zone ([3]; Pen G 4 ppb, Method c, one shaking step (10 seconds) before incubation): 1
- Intensity of detection zone ([3]; Pen G 4 ppb, Method d, shaking 5 seconds before and 10 seconds after incubation): 1
- Intensity of detection zone ([3]; Pen G 4 ppb, Method e, shaking 10 seconds before and 10 seconds after incubation): 1
SMILES: CC1(C)S[C@@H]2[C@H](NC(=O)Cc3ccccc3)C(=O)N2[C@H]1C(=O)O [Penicillin G]
